In US12459922B2 (Gilead Sciences, Inc., priority 2022, dated 2025):

Assays:
[1] = test system: endogenous cellular STAT1 (phosphorylated at Tyr701) in NCI-H1373 cells; test: Phospho-STAT1 (Tyr701) LANCE Ultra TR-FRET Detection Assay; type: cell-based; details: Homo sapiens, NCI-H1373, 48 h, phospho-STAT1 (Tyr701) induction, read-out: NH1373 pSTAT1 EC50
PARP7 = biological target: T1, PARP7 (Homo sapiens, UniProt Q7Z3E1); test: Probe Displacement Assay for PARP7 (MSD electrochemiluminescent, biotinylated probe RBNO11147); details: displacement of biotinylated probe RBNO11147 from PARP7 NAD+-binding site; read-out: MSD ProbeDisp PARP7 IC50
T1 sequence (Q7Z3E1 1-657): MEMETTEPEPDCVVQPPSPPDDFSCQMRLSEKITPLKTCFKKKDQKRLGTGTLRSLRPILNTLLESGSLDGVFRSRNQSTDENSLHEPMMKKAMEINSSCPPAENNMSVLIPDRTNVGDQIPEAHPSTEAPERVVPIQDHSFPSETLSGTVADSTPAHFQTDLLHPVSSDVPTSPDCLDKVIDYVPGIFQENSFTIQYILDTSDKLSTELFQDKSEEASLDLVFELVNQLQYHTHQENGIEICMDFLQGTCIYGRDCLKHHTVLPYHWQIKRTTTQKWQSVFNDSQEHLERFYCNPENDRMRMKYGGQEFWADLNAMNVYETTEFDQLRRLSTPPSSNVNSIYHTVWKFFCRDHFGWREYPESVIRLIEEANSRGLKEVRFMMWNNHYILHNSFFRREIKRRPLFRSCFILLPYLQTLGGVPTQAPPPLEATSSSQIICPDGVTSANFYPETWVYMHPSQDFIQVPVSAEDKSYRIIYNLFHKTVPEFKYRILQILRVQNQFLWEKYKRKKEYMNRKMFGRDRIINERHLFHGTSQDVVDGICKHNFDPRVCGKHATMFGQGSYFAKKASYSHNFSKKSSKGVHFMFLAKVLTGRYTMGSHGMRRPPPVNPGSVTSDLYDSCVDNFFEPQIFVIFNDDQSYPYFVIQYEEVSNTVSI
Procedure: Displacement of a biotinylated probe (RBNO11147; Wigle et al., Cell Chemical Biology, 2020, pp. 877-887) from the PARP7 NAD+-binding site was measured in vitro using a Mesoscale Discovery electrochemiluminescent assay. […] Next, 10 ml of 10 nM PARP7 protein incubated for 1 hour at room temperature with a dose response curve of each test compound in a Greiner LDV polypropylene plate (#781201) is added to the MSD plate containing the immobilized probe. The interaction is allowed to reach equilibrium for 1.5 hours, and then 10 ml of SULFO-TAG labeled anti-GST antibody (Cat #R32AA-1) is added to each well and allowed to incubate for an additional 1.5 hours at room temperature. Finally, 10 ml of MSD read buffer T (4×, Cat. #R92C-1) is added to each well using a Bravo liquid handler to prevent air bubbles in the wells, and the plates are subsequently read in an MSD instrument. Light intensity is then measured to quantify the amount of PARP7 bound to the immobilized probe on the plate.

EC50 [1] [nM]	IC50 (PARP7) [nM]	Structure (SMILES)
2300	0.4	C[C@@H](CCCn1ccc2cc(-c3cnc(C#N)cn3)c(F)cc2c1=O)Nc1cn[nH]c(=O)c1C(F)(F)F [Example 23, (S)-5-(7-fluoro-1-oxo-2-(4-((6-oxo-5-(trifluoromethyl)-1,6-dihydropyridazin-4-yl)amino)pentyl)-1,2-dihydroisoquinolin-6-yl)pyrazine-2-carbonitrile]
220	0.9	C[C@@H](CCCn1ccc2cc(-c3ncc(C#N)cn3)c(F)cc2c1=O)Nc1cn[nH]c(=O)c1C(F)(F)F [Example 24, (S)-2-(7-fluoro-1-oxo-2-(4-((6-oxo-5-(trifluoromethyl)-1,6-dihydropyridazin-4-yl)amino)pentyl)-1,2-dihydroisoquinolin-6-yl)pyrimidine-5-carbonitrile]
136	0.6	C[C@@H](CCCn1ccc2cc(-c3ccc(C#N)cn3)c(F)cc2c1=O)Nc1cn[nH]c(=O)c1C(F)(F)F [Example 25, (S)-6-(7-fluoro-1-oxo-2-(4-((6-oxo-5-(trifluoromethyl)-1,6-dihydropyridazin-4-yl)amino)pentyl)-1,2-dihydroisoquinolin-6-yl)nicotinonitrile]
10000	0.4	C[C@@H](CCCn1ccc2cc(-c3cccc4c3OCC4)c(F)cc2c1=O)Nc1cn[nH]c(=O)c1C(F)(F)F [Example 26, (S)-6-(2,3-dihydrobenzofuran-7-yl)-7-fluoro-2-(4-((6-oxo-5-(trifluoromethyl)-1,6-dihydropyridazin-4-yl)amino)pentyl)isoquinolin-1(2H)-one]
10000	25	C[C@@H](CCCn1ccc2cc(-c3cccc4c3OCCO4)c(F)cc2c1=O)Nc1cn[nH]c(=O)c1C(F)(F)F [Example 27, (S)-6-(2,3-dihydrobenzo[b][1,4]dioxin-5-yl)-7-fluoro-2-(4-((6-oxo-5-(trifluoromethyl)-1,6-dihydropyridazin-4-yl)amino)pentyl)isoquinolin-1(2H)-one]
2180	> 33	C[C@@H](CCCn1ccc2cc(-c3ccc4c(c3)OCCO4)c(F)cc2c1=O)Nc1cn[nH]c(=O)c1C(F)(F)F [Example 28, (S)-6-(2,3-dihydrobenzo[b][1,4]dioxin-6-yl)-7-fluoro-2-(4-((6-oxo-5-(trifluoromethyl)-1,6-dihydropyridazin-4-yl)amino)pentyl)isoquinolin-1(2H)-one]
31.6	1.6	C[C@@H](CCCn1cnc2cc(-c3ncc(C(F)(F)F)cn3)c(F)cc2c1=O)Nc1cn[nH]c(=O)c1C(F)(F)F [Example 29, (S)-6-fluoro-3-(4-((6-oxo-5-(trifluoromethyl)-1,6-dihydropyridazin-4-yl)amino)pentyl)-7-(5-(trifluoromethyl)pyrimidin-2-yl)quinazolin-4(3H)-one]
18.6	0.3	C[C@@H](CCCn1c(=O)[nH]c2cc(-c3ncc(C(F)(F)F)cn3)c(F)cc2c1=O)Nc1cn[nH]c(=O)c1C(F)(F)F [Example 30, 6-fluoro-3-[(4S)-4-[[6-oxo-5-(trifluoromethyl)-1H-pyridazin-4-yl]amino]pentyl]-7-[5-(trifluoromethyl)pyrimidin-2-yl]-1H-quinazoline-2,4-dione]
2180	0.2	C[C@@H](CCCn1ccc2cc(-c3ccccn3)c(F)cc2c1=O)Nc1cn[nH]c(=O)c1C(F)(F)F [Example 31, 7-fluoro-2-[(4S)-4-[[6-oxo-5-(trifluoromethyl)-1H-pyridazin-4-yl]amino]pentyl]-6-(2-pyridyl)isoquinolin-1-one]
187	2.6	C[C@@H](CCCn1ccc2cc(-c3ccc(OC(F)(F)F)cn3)c(F)cc2c1=O)Nc1cn[nH]c(=O)c1C(F)(F)F [Example 32, 7-fluoro-2-[(4S)-4-[[6-oxo-5-(trifluoromethyl)-1H-pyridazin-4-yl]amino]pentyl]-6-[5-(trifluoromethoxy)-2-pyridyl]isoquinolin-1-one]
